ChEMBL document CHEMBL1201862, “PubChem BioAssay data set” (2004)
Calls of active or inactive are those of the source. Starred links: 1 amine or outer side, 2 acyl side, 3 side chain; linkers in the order of their positions; H or OH if unused. Positions of bridges follow the written chain, without caps; N, C: chain ends. Non-standard residues stand in square brackets, D forms with d. Residues, ends and D or L forms follow the SMILES beside them. Chains are numbered I, II in the order given. Actinocin(1to9) = Cc1c2oc3c(C)ccc(C(=O)[*:2])c3nc-2c(C(=O)[*:1])c(N)c1=O; aThr = C[C@H](O)[C@H](N)C(=O)O; NMeV = CN[C@H](C(=O)O)C(C)C; Sar = CNCC(=O)O

Legend:
[1] = inhibitors of HIV Env-driven cell fusion, dose response, cherry-pick (AID 652057); type: functional, cell-based
Cytochrome P450 1A2 = biological target: T1, Cytochrome P450 1A2 (Homo sapiens, UniProt P05177);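 also: PubChem cytochrome P450 panel assay, CYP1A2 panel member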
T1 sequence (P05177 whole entry): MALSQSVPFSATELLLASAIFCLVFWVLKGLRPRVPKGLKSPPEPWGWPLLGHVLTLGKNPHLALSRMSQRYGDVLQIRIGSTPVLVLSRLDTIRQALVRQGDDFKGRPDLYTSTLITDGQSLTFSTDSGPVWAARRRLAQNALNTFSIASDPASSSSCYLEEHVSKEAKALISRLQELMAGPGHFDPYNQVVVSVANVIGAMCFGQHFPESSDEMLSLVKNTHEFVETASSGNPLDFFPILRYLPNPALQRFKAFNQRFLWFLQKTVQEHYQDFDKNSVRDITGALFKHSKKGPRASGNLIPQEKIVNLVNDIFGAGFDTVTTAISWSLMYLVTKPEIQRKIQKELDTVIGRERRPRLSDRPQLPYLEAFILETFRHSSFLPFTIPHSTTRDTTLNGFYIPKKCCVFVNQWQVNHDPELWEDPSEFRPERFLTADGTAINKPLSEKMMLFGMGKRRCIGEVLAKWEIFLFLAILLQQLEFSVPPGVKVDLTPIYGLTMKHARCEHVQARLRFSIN

[2] = biological target: T2, Microphthalmia-associated transcription factor (Homo sapiens, UniProt O75030); experiment: TRPM1 promoter luciferase signal decrease, dose response, MITF inhibitor project, cell-based, SK-MEL-5, cherry-picked, set 3 (AID 493073); type: functional
T2 sequence (O75030 whole entry): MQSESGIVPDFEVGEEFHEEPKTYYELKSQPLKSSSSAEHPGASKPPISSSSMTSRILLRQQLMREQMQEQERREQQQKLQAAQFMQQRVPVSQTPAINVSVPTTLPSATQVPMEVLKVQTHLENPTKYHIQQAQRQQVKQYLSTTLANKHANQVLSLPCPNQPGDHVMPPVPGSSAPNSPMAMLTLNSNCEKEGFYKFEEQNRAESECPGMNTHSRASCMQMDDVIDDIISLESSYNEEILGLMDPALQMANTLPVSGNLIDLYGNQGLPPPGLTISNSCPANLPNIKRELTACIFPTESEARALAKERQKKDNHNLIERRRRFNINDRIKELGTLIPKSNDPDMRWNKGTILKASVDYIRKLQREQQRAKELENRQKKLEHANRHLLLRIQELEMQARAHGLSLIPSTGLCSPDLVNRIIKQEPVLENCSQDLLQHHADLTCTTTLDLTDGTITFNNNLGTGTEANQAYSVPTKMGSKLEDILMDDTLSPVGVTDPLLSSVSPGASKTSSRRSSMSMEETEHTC

[3] = Luminescence Cell-Based Dose Response HTS to Identify Activators of Luciferase Translation or Activity in H4 […] Cells. [Related pubchem assays: 1829 (Project Summary), 1814 (Primary HTS)]; type: functional
[4] = Luminescence Cell-Based Dose Confirmation HTS to Identify Activators of 5'UTR Stem-Loop Driven Alpha-Synuclein mRNA Translation in H4 Neuroglioblastoma Cells. [Related pubchem assays: 1829 (Project Summary), 1814 (Primary HTS)]; type: functional
[5] = biological target: Luciferin 4-monooxygenase (Photinus pyralis, UniProt P08659); experiment: firefly luciferase enzyme inhibitors, dose response, biochemical, luminescence (AID 1891)
[6] = Luminescence Cell-Based Dose Confirmation HTS to Identify Inhibitors of Platelet Dense Granule Release. [Related pubchem assays: 1663 (Primary HTS), 1678 (Summary of Project)]; type: functional
P388 = experiment: cells; type: functional
P388/ADR = experiment: cells; type: functional
SN12K1 = experiment: cells; type: functional
[7] = microbe, parasite or virus in culture; type: functional; details: Mycobacterium tuberculosis
Cytochrome P450 2D6 = Cytochrome P450 2D6 (Homo sapiens, UniProt P10635);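 also: CYP2D6 member of a cytochrome P450 panel assay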
[8] = HEp-2 cell cytotoxicity, dose response, cytotoxicity control for RSV inhibitor project, HTS (AID 2410); type: functional; details: human respiratory syncytial virus
[9] = inhibitors of clade B AD8 Env fusion, dose response, cell-based, cherry-pick (AID 652062); type: functional;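 also: luciferase signal from cell-cell fusion driven by HIV-1 clade B AD8 Env; potency is for inhibitors of fusion seen as a drop in luminescence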
[10] = tested on: Streptococcus sp. 'group A'; experiment: growth inhibition of control SK(-) GAS strain, dose response, counter-screen for streptokinase expression inhibitor project, luminescence, kanamycin, BacTiterGlo, confirmation (AID 1900); type: functional, organism-based
Streptokinase A = biological target: T3, Streptokinase A (Streptococcus pyogenes serotype M1, UniProt P10520); experiment: S. pyogenes streptokinase expression inhibitors, potency, dose response, plasminogen activation absorbance, OD405 (AID 1914); type: functional, Streptococcus pyogenes M1 GAS;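 also: secreted streptokinase activity via plasminogen activation per viability signal from cell pellet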
T3 sequence (P10520 whole entry): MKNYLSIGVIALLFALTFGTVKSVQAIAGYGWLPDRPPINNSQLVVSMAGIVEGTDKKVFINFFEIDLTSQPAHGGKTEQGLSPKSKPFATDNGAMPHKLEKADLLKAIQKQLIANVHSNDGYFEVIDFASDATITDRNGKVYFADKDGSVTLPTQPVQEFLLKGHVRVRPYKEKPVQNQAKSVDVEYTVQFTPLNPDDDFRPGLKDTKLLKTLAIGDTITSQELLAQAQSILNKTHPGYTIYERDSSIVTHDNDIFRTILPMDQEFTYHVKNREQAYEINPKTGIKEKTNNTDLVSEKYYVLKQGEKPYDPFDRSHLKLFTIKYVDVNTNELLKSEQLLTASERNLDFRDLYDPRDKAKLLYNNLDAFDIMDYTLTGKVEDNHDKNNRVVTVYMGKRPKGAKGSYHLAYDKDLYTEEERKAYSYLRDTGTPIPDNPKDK

Streptococcus = experiment: Group A Streptococcus viability loss, dose response, counter-screen for streptokinase expression inhibitor project, luminescence, BacTiterGlo (AID 1915); type: functional, organism-based;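 also: potency for reduction of bacterial viability or growth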

Sequence of Luciferin 4-monooxygenase (P08659 whole entry): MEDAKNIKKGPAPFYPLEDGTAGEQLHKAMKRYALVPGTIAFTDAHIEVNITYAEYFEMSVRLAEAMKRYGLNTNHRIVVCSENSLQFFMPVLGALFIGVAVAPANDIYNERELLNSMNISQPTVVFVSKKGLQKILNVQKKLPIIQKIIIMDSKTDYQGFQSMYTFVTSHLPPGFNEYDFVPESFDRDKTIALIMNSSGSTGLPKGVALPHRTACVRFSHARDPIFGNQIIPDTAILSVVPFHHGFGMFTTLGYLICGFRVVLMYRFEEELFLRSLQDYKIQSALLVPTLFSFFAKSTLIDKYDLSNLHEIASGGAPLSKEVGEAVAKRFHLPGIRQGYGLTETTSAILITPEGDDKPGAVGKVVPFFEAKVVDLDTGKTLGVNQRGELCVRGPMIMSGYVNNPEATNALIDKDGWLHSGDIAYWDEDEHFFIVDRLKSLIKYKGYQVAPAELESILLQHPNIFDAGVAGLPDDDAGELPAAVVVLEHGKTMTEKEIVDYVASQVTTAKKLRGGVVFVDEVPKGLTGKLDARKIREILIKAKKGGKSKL
Sequence of Cytochrome P450 2D6 (P10635 whole entry): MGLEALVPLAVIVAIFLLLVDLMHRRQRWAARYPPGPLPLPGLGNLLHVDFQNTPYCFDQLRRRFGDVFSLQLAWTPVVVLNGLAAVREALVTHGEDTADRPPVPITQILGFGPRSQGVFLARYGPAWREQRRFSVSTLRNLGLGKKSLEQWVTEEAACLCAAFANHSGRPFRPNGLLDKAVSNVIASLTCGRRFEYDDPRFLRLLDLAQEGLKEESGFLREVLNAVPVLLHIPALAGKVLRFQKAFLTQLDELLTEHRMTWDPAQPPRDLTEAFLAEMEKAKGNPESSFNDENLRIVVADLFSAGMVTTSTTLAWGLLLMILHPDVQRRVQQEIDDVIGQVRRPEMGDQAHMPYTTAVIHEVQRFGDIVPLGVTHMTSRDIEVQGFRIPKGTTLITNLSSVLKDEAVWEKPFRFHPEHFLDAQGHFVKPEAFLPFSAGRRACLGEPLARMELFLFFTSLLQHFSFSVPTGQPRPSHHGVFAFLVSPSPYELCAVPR

## Clc1ccc2c(c1)C1=C(C(c3ccncc3)O2)C(c2ccc(Br)cc2)n2ncnc2N1 (configuration not stated)
[1]
  AC50: 11.2 µM (active)
Cytochrome P450 1A2
  AC50: 25.1 µM (inconclusive)

## Cn1nnnc1Sc1ncnc2scc(-c3cccs3)c12
[2]
  AC50: 7 µM (active)

## CC(=O)C(=NNc1ccc2c(c1)OCO2)C(C)=O
[3]
  EC50: 27.8 µM (active)
[4]
  EC50: 13.9 µM (active)

## O=C(COc1ccc(C(=O)c2ccccc2)cc1)NC1CCCCC1
[5]
  EC50: > 112 µM (not active)
[6]
  EC50: > 112 µM (not active)

## O=C(/C=C/c1ccccc1)NCC1(c2ccccc2)CCOCC1
[5]
  EC50: > 112 µM (not active)
[6]
  EC50: > 112 µM (not active)

## C=CC1(C)CC(=O)C2(O)C(C)(O1)C(OC(C)=O)C(O)C1C(C)(C)CCC(O)C12C (configuration not stated)
P388; Mus musculus, P388
  GI50: 56.4 µM (inactive)
P388/ADR; Mus musculus, P388/ADR
  GI50: 43.9 µM (inactive)
SN12K1; Homo sapiens, SN12K1
  GI50: 65.3 µM (inactive)

## CCOC(=O)Cn1c(=O)n(Cc2ccco2)c(=O)c2ccc(C(=O)NC3CCCC3)cc21
[5]
  EC50: > 112 µM (not active)
[6]
  EC50: 13.8 µM (active)

## COc1ccc(-n2cc(CNCCc3cscn3)c(-c3ccccc3Cl)n2)cc1
[7]
  CC50: > 40 µM (active)

## COc1ccc(N2CCN(c3ccnc4cc(Cl)ccc34)CC2)cc1
[7]
  CC50: > 40 µM (active)

## Nc1[nH]nc(C2CC2)c1N=Nc1ccc(Cl)cc1
[7]
  CC50: > 40 µM (active)

## CCC(=O)Nc1cccc(-c2nnc(SCC(=O)c3ccccc3)n2C)c1
[3]
  EC50: 47.5 µM (active)

## CCOc1ccc(OCc2ccc(C(=O)NCc3cccnc3)o2)cc1
[5]
  EC50: > 112 µM (not active)
Cytochrome P450 2D6
  AC50: 1.26 µM (inconclusive)
[6]
  EC50: > 112 µM (not active)

## Cc1ncc2c(n1)-c1cc(F)ccc1SC2
[8]
  CC50: 40.5 µM (active)

## CCOC(=O)c1c(CN2CCN(Cc3ccccc3)CC2)n(C)c2cc(Br)c(OC)cc12
[7]
  CC50: > 40 µM (active)

## CC(C)c1ccc(C(=O)OC2CCOC2=O)cc1 (configuration not stated)
[5]
  EC50: > 112 µM (not active)
[6]
  EC50: > 112 µM (not active)

## CSc1ccccc1OCc1cc(C(=O)N2CCC(Oc3cccnc3)CC2)no1
[7]
  CC50: > 40 µM (active)

## COc1ccc(CCNC(=O)c2cc3sc(Cl)cc3n2C)cc1OC
[8]
  CC50: 27.5 µM (active)

## CCc1cc(=O)oc2cc(C)cc(OCC(=O)NCc3cccnc3)c12
[5]
  EC50: > 112 µM (not active)
[6]
  EC50: > 112 µM (not active)

## CCCCNC(=O)c1cccc(S(=O)(=O)N2CC3(C)CC2CC(C)(C)C3)c1 (configuration not stated)
[8]
  CC50: 26.5 µM (active)

## O=C(O)CCC(NC(=O)c1ccc(Nc2nc3cc(C(F)(F)F)ccc3nc2-c2ccccc2)cc1)C(=O)O (configuration not stated)
P388; Mus musculus, P388
  GI50: 26.5 µM (inactive)
P388/ADR; Mus musculus, P388/ADR
  GI50: 38.5 µM (inactive)
SN12K1; Homo sapiens, SN12K1
  GI50: 48.2 µM (inactive)

## CCOC(=O)c1c(C)c2c(n1C)CCc1c[nH]nc1-2
P388; Mus musculus, P388
  GI50: > 100 µM (inactive)
P388/ADR; Mus musculus, P388/ADR
  GI50: > 31.6 µM (inactive)
SN12K1; Homo sapiens, SN12K1
  GI50: > 100 µM (inactive)

## COc1cc2c(cc1OC)C(C(c1ccccc1)c1ccccc1)N(C)CC2 (configuration not stated)
P388; Mus musculus, P388
  GI50: 24.5 µM (inactive)
P388/ADR; Mus musculus, P388/ADR
  GI50: 41.6 µM (inactive)
SN12K1; Homo sapiens, SN12K1
  GI50: 32.6 µM (inactive)

## C[C@H]1CN([C@@H](C)CO)C(=O)c2ccccc2-c2ccccc2CO[C@@H]1CN(C)C(=O)Nc1cccc(C(F)(F)F)c1
[9]
  AC50: 19 µM (active)
[1]
  AC50: < 0.26 µM (active)

## Oc1c(Cl)cccc1/C=N/c1cc(C(F)(F)F)ccc1N1CCCC1
[5]
  EC50: > 112 µM (not active)
[6]
  EC50: > 112 µM (not active)

## COC(C(=O)C(O)C(C)O)C1Cc2cc3cc(OC4CC(OC(C)=O)C(OC5CC(O)C(OC)C(C)O5)C(C)O4)cc(O)c3c(O)c2C(=O)C1OC1CC(OC2CC(OC3CC(C)(O)C(OC(=O)C(C)C)C(C)O3)C(O)C(C)O2)C(O)C(C)O1 (configuration not stated)
P388
  GI50: 0.0075 µM (active)
P388; Mus musculus, P388
  GI50: 0.0123 µM (active)
P388/ADR
  GI50: 5.12 µM (inactive)
P388/ADR; Mus musculus, P388/ADR
  GI50: 5.98 µM (inactive)
SN12K1
  GI50: 0.00895 µM (active)
SN12K1; Homo sapiens, SN12K1
  GI50: 0.01 µM (active)

## O=C1C=C2SC3C[C@@]24CC1[N+]1=c2c4c(c(O)c4c2=C(C=N4)CC1)N3
P388; Mus musculus, P388
  GI50: 1.83 µM (inactive)
P388/ADR; Mus musculus, P388/ADR
  GI50: 6.35 µM (inactive)
SN12K1; Homo sapiens, SN12K1
  GI50: 1.94 µM (inactive)

## OCC1OC(n2cnc3c(NC4CCCC4)ncnc32)C(O)C1O (configuration not stated)
[5]
  EC50: > 112 µM (not active)
[6]
  EC50: 1.09 µM (active)

## CCOC(=O)c1c(N)sc(-c2ccccc2)c1C
[8]
  CC50: 28.5 µM (active)

## Cc1c2oc3c(C)ccc(C(=O)N[C@@H]4C(=O)N[C@H](C(C)C)C(=O)N5CCC[C@H]5C(=O)N(C)CC(=O)N(C)[C@@H](C(C)C)C(=O)O[C@H]4C)c3nc-2c(C(=O)N[C@@H]2C(=O)N[C@H](C(C)C)C(=O)N3CCC[C@H]3C(=O)N(C)CC(=O)N(C)[C@@H](C(C)C)C(=O)O[C@H]2C)c(N)c1=O (I: [aThr][dV]P[Sar][NMeV] / II: [aThr][dV]P[Sar][NMeV]; ester I:1-I:C, II:1-II:C; linker I:N-II:N via Actinocin(1to9))
P388; Mus musculus, P388
  GI50: 0.00025 µM (active)
P388/ADR; Mus musculus, P388/ADR
  GI50: 0.00442 µM (active)
SN12K1; Homo sapiens, SN12K1
  GI50: 0.000337 µM (active)

## CC12CCC(CC1)C(C)(C)O2 [EUCALYPTOL]
[10]
  EC50: > 150 µM (not active)
Streptokinase A
  EC50: > 150 µM (not active)
Streptococcus
  EC50: > 150 µM (not active)
P388; Mus musculus, P388
  GI50: 9.1 µM (inactive)
P388/ADR; Mus musculus, P388/ADR
  GI50: 8.17 µM (inactive)
SN12K1; Homo sapiens, SN12K1
  GI50: 21.9 µM (inactive)

## NC1=NC(=O)/C(=C2\CCNC(=O)c3[nH]c(Br)cc32)N1 [HYMENIALDISINE]
P388; Mus musculus, P388
  GI50: 3.97 µM (inactive)
P388/ADR; Mus musculus, P388/ADR
  GI50: 7.28 µM (inactive)
SN12K1; Homo sapiens, SN12K1
  GI50: 12.3 µM (inactive)
